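Five compound concentrations were applied to cells in 96-well plates for 48 hours; endpoints were derived by simple linear interpolation of the resulting dose-response curve. GI50 marks 50% less growth. Definition used: TGI = concentration required for complete inhibition of growth.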
Columns and labels:
Assay in all cases: NCI tumour cell line growth inhibition, 48 h
DLD-1 colon = test system: DLD-1 colon
SNB-78 CNS = test system: SNB-78 CNS
NCI-H460 lung = test system: NCI-H460 lung
MALME-3M melanoma = test system: MALME-3M melanoma
SF-539 CNS = test system: SF-539 CNS
HT29 colon = test system: HT29 colon
M14 melanoma = test system: M14 melanoma
OVCAR-3 ovarian = test system: OVCAR-3 ovarian
786-0 renal = test system: 786-0 renal
KM12 colon = test system: KM12 colon
IGROV1 ovarian = test system: IGROV1 ovarian
SR leukemia = test system: SR leukemia
HCT-116 colon = test system: HCT-116 colon
MOLT-4 leukemia = test system: MOLT-4 leukemia
LOX IMVI melanoma = test system: LOX IMVI melanoma
CCRF-CEM leukemia = test system: CCRF-CEM leukemia
HOP-62 NSCLC = test system: HOP-62 NSCLC
OVCAR-8 ovarian = test system: OVCAR-8 ovarian
RXF 393 renal = test system: RXF 393 renal
SK-OV-3 ovarian = test system: SK-OV-3 ovarian
SN12C renal = test system: SN12C renal
UO-31 renal = test system: UO-31 renal
SK-MEL-28 melanoma = test system: SK-MEL-28 melanoma
K-562 leukemia = test system: K-562 leukemia
HOP-18 NSCLC = test system: HOP-18 NSCLC
UACC-257 melanoma = test system: UACC-257 melanoma
LXFL 529 NSCLC = test system: LXFL 529 NSCLC
SNB-75 CNS = test system: SNB-75 CNS
SF-295 CNS = test system: SF-295 CNS
TK-10 renal = test system: TK-10 renal
A549 NSCLC = test system: A549 NSCLC
HCC-2998 colon = test system: HCC-2998 colon
NCI-H522 lung = test system: NCI-H522 lung
UACC-62 melanoma = test system: UACC-62 melanoma
EKVX NSCLC = test system: EKVX NSCLC
ACHN renal = test system: ACHN renal
HCT-15 colon = test system: HCT-15 colon
SK-MEL-2 melanoma = test system: SK-MEL-2 melanoma
NCI-H23 lung = test system: NCI-H23 lung
M19-MEL melanoma = test system: M19-MEL melanoma
KM20L2 colon = test system: KM20L2 colon
SW-620 colon = test system: SW-620 colon
SK-MEL-5 melanoma = test system: SK-MEL-5 melanoma
U251 CNS = test system: U251 CNS
OVCAR-5 ovarian = test system: OVCAR-5 ovarian
HL-60(TB) leukemia = test system: HL-60(TB) leukemia
A498 renal = test system: A498 renal
DMS 273 small cell lung = test system: DMS 273 small cell lung
HOP-92 NSCLC = test system: HOP-92 NSCLC
RPMI-8226 leukemia = test system: RPMI-8226 leukemia
CAKI-1 renal = test system: CAKI-1 renal
OVCAR-4 ovarian = test system: OVCAR-4 ovarian
SNB-19 CNS = test system: SNB-19 CNS

COC1CC(OC)C2OC(c3ccccc3)OCC2O1 (stereo unspecified)
TGI (DLD-1 colon): > 100 µM
TGI (SNB-78 CNS): > 100 µM
TGI (NCI-H460 lung): > 100 µM
TGI (MALME-3M melanoma): > 100 µM
TGI (SF-539 CNS): > 100 µM
TGI (HT29 colon): > 100 µM
TGI (M14 melanoma): > 100 µM
TGI (OVCAR-3 ovarian): > 100 µM
TGI (786-0 renal): > 100 µM
TGI (KM12 colon): > 100 µM
TGI (IGROV1 ovarian): > 100 µM
TGI (SR leukemia): > 100 µM
TGI (HCT-116 colon): > 100 µM
TGI (MOLT-4 leukemia): > 100 µM
TGI (LOX IMVI melanoma): > 100 µM
TGI (CCRF-CEM leukemia): > 100 µM
TGI (HOP-62 NSCLC): > 100 µM
TGI (OVCAR-8 ovarian): > 100 µM
TGI (RXF 393 renal): > 100 µM
TGI (SK-OV-3 ovarian): > 100 µM
TGI (SN12C renal): > 100 µM
TGI (UO-31 renal): > 100 µM
TGI (SK-MEL-28 melanoma): > 100 µM
TGI (K-562 leukemia): > 100 µM
TGI (HOP-18 NSCLC): > 100 µM
TGI (UACC-257 melanoma): > 100 µM
TGI (LXFL 529 NSCLC): > 100 µM
TGI (SNB-75 CNS): > 100 µM
TGI (SF-295 CNS): > 100 µM
TGI (TK-10 renal): > 100 µM
TGI (A549 NSCLC): > 100 µM
TGI (HCC-2998 colon): > 100 µM
TGI (NCI-H522 lung): > 100 µM
TGI (UACC-62 melanoma): > 100 µM
TGI (EKVX NSCLC): > 100 µM
TGI (ACHN renal): > 100 µM
TGI (HCT-15 colon): > 100 µM
TGI (SK-MEL-2 melanoma): > 100 µM
TGI (NCI-H23 lung): > 100 µM
TGI (M19-MEL melanoma): > 100 µM
TGI (KM20L2 colon): > 100 µM
TGI (SW-620 colon): > 100 µM
TGI (SK-MEL-5 melanoma): > 100 µM
TGI (U251 CNS): > 100 µM
TGI (OVCAR-5 ovarian): > 100 µM
TGI (HL-60(TB) leukemia): > 100 µM

O=C1C(C(Nc2ccccc2)c2ccccc2)=C([O-])c2ccccc21.O=C1C(C(Nc2ccccc2)c2ccccc2)=C([O-])c2ccccc21.[Co+2] (stereo unspecified)
GI50 (DLD-1 colon): 4.02 µM
TGI (DLD-1 colon): > 100 µM
GI50 (SNB-78 CNS): > 100 µM
TGI (SNB-78 CNS): > 100 µM
GI50 (MALME-3M melanoma): 5.48 µM
TGI (MALME-3M melanoma): > 100 µM
GI50 (SF-539 CNS): 3.3 µM
TGI (SF-539 CNS): > 100 µM
GI50 (M14 melanoma): 3.86 µM
TGI (M14 melanoma): > 100 µM
GI50 (786-0 renal): 7.11 µM
TGI (786-0 renal): > 100 µM
GI50 (IGROV1 ovarian): 5.6 µM
TGI (IGROV1 ovarian): > 100 µM
GI50 (SR leukemia): 6.07 µM
TGI (SR leukemia): > 100 µM
GI50 (HCT-116 colon): 3.15 µM
TGI (HCT-116 colon): > 100 µM
GI50 (A498 renal): 5.13 µM
TGI (A498 renal): > 100 µM
GI50 (DMS 273 small cell lung): 4.08 µM
TGI (DMS 273 small cell lung): > 100 µM
GI50 (MOLT-4 leukemia): 4.04 µM
TGI (MOLT-4 leukemia): > 100 µM
GI50 (CCRF-CEM leukemia): 4.96 µM
TGI (CCRF-CEM leukemia): > 100 µM
GI50 (HOP-62 NSCLC): > 100 µM
TGI (HOP-62 NSCLC): > 100 µM
GI50 (HOP-92 NSCLC): 6.92 µM
TGI (HOP-92 NSCLC): > 100 µM
GI50 (UO-31 renal): 2.69 µM
TGI (UO-31 renal): 53.8 µM
GI50 (SK-MEL-28 melanoma): 5.55 µM
TGI (SK-MEL-28 melanoma): > 100 µM
GI50 (K-562 leukemia): 3.2 µM
TGI (K-562 leukemia): > 100 µM
GI50 (HOP-18 NSCLC): 11.5 µM
TGI (HOP-18 NSCLC): > 100 µM
GI50 (UACC-257 melanoma): 5.04 µM
TGI (UACC-257 melanoma): 46.4 µM
GI50 (SNB-75 CNS): 4.49 µM
TGI (SNB-75 CNS): 79.8 µM
GI50 (TK-10 renal): 5.48 µM
TGI (TK-10 renal): 86 µM
GI50 (A549 NSCLC): 4.2 µM
TGI (A549 NSCLC): > 100 µM
GI50 (NCI-H522 lung): 2.31 µM
TGI (NCI-H522 lung): 5.43 µM
GI50 (UACC-62 melanoma): 5.45 µM
TGI (UACC-62 melanoma): > 100 µM
GI50 (RPMI-8226 leukemia): 2.8 µM
TGI (RPMI-8226 leukemia): > 100 µM
GI50 (CAKI-1 renal): 18.7 µM
TGI (CAKI-1 renal): > 100 µM
GI50 (ACHN renal): 6.62 µM
TGI (ACHN renal): > 100 µM
GI50 (NCI-H23 lung): 4.3 µM
TGI (NCI-H23 lung): > 100 µM
GI50 (M19-MEL melanoma): 15.2 µM
TGI (M19-MEL melanoma): > 100 µM
GI50 (OVCAR-4 ovarian): 3.38 µM
TGI (OVCAR-4 ovarian): 9.92 µM
GI50 (SW-620 colon): 4.75 µM
TGI (SW-620 colon): > 100 µM
GI50 (SNB-19 CNS): > 100 µM
TGI (SNB-19 CNS): > 100 µM
GI50 (SK-MEL-5 melanoma): 3.78 µM
TGI (SK-MEL-5 melanoma): > 100 µM
GI50 (HL-60(TB) leukemia): 3.72 µM
TGI (HL-60(TB) leukemia): > 100 µM

Source: PubChem BioAssay (NCI)
